Results: patent US20160208002A1, “Compositions Associated with and Methods of Managing Neutrophil Movement” (priority 2013, published 2016)

What was measured:
human neutrophils [1] = experiment: human neutrophil spreading on fibronectin-coated plates after TNF-α; type: cell-based; conditions: 3 microgram/ml compound, FIG. 3
CD209 = target: T1, CD209 (Homo sapiens, UniProt Q9NNX6); conditions: read-out: affinity for CD209, Kd; cited from earlier work
T1 sequence (Q9NNX6 1-404): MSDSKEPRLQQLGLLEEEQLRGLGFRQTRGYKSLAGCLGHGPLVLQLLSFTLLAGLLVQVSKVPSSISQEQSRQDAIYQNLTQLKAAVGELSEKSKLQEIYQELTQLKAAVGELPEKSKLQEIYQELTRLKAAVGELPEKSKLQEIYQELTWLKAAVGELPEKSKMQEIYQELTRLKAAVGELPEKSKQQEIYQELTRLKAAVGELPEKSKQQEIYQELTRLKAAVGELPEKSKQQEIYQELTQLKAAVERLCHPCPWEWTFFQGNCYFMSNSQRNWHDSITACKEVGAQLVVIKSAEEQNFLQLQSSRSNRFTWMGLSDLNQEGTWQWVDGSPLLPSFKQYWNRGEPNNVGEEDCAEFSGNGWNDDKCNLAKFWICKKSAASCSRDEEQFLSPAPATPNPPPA

human neutrophils [2] = experiment: human neutrophil adhesion to human fibronectin after TNF-α; type: cell-based; conditions: 3 microgram/ml compound, 30 minutes, fibronectin-coated plate, FIG. 2
From the text: Human blood was collected into EDTA tubes (BD Bioscience, San Jose, Calif.) from adult volunteers who gave written consent and with specific approval from the Texas A&M University human subjects Institutional Review Board. Neutrophils were then isolated from the blood using Lympholyte-poly (Cedarlane Laboratories, Hornby, BC, Canada) following the manufacturer's protocol and resuspended in 2% bovine serum albumen (BSA) (fraction V, A3059; Sigma-Aldrich) in RPMI 1640 medium (Lonza, Allendale, N.J.). 96-well tissue culture plates (flat-bottom polystyrene, BD Bioscience) were pre-coated with 20 μg/ml of human plasma fibronectin (Trevigen, Gaithersburg, Md.) in phosphate buffered saline (PBS) for 30 minutes at 37° C. and then blocked with 2% BSA in RPMI for 1 hour at 37° C. 50 microliters of 5×10^5 cells/ml neutrophils were incubated with 3 microgram/ml (0.5 microliters of the stock solution) of compound 1 or 3 for 30 minutes at 37° C. in a 1.5 ml Eppendorf tube (Eppendorf, Hauppauge, N.Y.). When testing the effect of CD209 antibodies on neutrophil adhesion to human fibronectin, anti-human CD209 antibodies clone DCN46 (BD Biosciences, San Jose, Calif.), eB-h209 (eBioscience, San Jose, Calif.), H-200 (Santa Cruz Biotechnology, Dallas, Tex.), ab89186 (Abcam, Cambridge, Mass.), or 9E9A8 (Biolegend Inc, San Diego, Calif.) were incubated with neutrophils at a concentration of 1 microgram/ml (0.2 microliters of the stock solution) or the concentration indicated on the figure. Rat IgG2a was used as an isotype control for the anti-human CD209 antibody clone eB-h209. Mouse IgG2b was used as an isotype control for the anti-human CD209 antibody clone DCN46. Mouse IgG1 was used as an isotype control for the anti-human CD209 antibody clone 9E9A8. Rabbit IgG was used as an isotype control for the two rabbit anti-human CD209 antibodies clone H-200 and ab89186. […] After removing the media and washing the plates 3 times with PBS, the plates were air-dried, fixed, stained, and the number of neutrophils that remained in the wells was counted. […]

In the case of CCC(=O)Nc1nc(C)c(-c2csc(Nc3ccc(N(C)C)cc3)n2)s1 [Compound 1], the “neutrophil spreading compared to the TNF-α control” value (human neutrophils [1]) is listed as “reduced neutrophil spreading”, the Kd (CD209) is listed as 1.6 µM and the “neutrophil adhesion compared to the TNF-α control” value (human neutrophils [2]) is listed as “significantly reduced neutrophil adhesion”.
